In ChEMBL document CHEMBL1201862, “PubChem BioAssay data set” (2004):
Activity calls are given as the source filed them.

Legend:
[1] = molecular target: T1, Delta-type opioid receptor (Homo sapiens, UniProt P41143); assay: delta opioid receptor blockers – image-based, SAR follow-up (AID 2357); type: functional
[2] = molecular target: T2, Kappa-type opioid receptor (Homo sapiens, UniProt P41145); assay: kappa opioid receptor blockers, cell-based, luminescence, beta-arrestin, SAR follow-up (AID 2285); type: functional
Beta-galactosidase = Beta-galactosidase (Escherichia coli, UniProt Q8VNN2); type: functional
[3] = molecular target: T2, Kappa-type opioid receptor; type: functional
[4] = molecular target: T3, Tyrosine-protein phosphatase non-receptor type 7 (Homo sapiens, UniProt P35236); assay: SAR analysis of chemical inhibitors of HePTP using a Fluorescent assay - Set 2. [Related pubchem assays (depositor defined):AID1059, AID1077, AID1661, AID2085, AID521]; type: functional
T3 sequence (P35236 whole entry): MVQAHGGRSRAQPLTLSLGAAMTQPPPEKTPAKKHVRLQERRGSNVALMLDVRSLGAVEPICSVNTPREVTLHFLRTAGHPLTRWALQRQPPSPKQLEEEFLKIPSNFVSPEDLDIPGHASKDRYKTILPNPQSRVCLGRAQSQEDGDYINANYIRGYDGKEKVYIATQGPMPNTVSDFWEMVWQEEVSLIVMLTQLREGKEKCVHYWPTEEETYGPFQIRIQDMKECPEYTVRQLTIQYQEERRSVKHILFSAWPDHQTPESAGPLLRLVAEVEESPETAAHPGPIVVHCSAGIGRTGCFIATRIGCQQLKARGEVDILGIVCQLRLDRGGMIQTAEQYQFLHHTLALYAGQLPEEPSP

Streptokinase A = molecular target: T4, Streptokinase A (Streptococcus pyogenes serotype M1, UniProt P10520); assay: viability-normalized secreted streptokinase activity reduction – plasminogen activation absorbance, OD405, dose response (AID 1914); type: functional, Streptococcus pyogenes M1 GAS;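 further: secreted streptokinase activity via plasminogen activation per viability signal from cell pellet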
T4 sequence (P10520 whole entry): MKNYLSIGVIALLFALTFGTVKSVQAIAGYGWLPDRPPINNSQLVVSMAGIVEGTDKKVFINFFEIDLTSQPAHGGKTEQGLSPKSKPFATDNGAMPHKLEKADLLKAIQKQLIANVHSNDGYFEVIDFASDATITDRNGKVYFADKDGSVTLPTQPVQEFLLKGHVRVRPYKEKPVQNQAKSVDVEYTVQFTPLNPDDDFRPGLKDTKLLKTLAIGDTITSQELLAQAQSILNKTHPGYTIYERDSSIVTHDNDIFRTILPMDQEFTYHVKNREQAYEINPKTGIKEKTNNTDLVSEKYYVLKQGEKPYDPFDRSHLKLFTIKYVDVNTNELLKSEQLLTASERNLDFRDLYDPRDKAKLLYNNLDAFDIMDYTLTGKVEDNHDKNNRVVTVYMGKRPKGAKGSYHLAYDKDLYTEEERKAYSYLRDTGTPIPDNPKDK

[5] = molecular target: T1, Delta-type opioid receptor; assay: DOR agonists, SAR follow-up, image-based (AID 2370); type: functional
[6] = molecular target: Dual specificity protein phosphatase 3 (Homo sapiens, UniProt P51452); assay: SAR VHR1 Fluorescent Assay for In Vitro dose response studies Set 2. [Related pubchem assays (depositor defined):AID1654, AID1661, AID1878]; type: functional
Mu-type opioid receptor [7] = molecular target: T5, Mu-type opioid receptor (Homo sapiens, UniProt P35372); assay: mu opioid receptor activators, image-based, SAR follow-up (AID 2352); type: functional
[8] = molecular target: T2, Kappa-type opioid receptor; type: functional; remark: listed apart in the source
[9] = system: Streptococcus sp. 'group A'; assay: Streptococcus pyogenes SK(-)GAS viability under kanamycin – luminescence, BacTiterGlo, confirmation, counter-screen for streptokinase expression inhibitor project, dose response (AID 1900); type: functional, organism-based
Mu-type opioid receptor [10] = molecular target: T5, Mu-type opioid receptor; assay: mu opioid receptor blockers – image-based, SAR follow-up (AID 2420); type: functional;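 further: compounds added before stimulation of receptor with agonist DAMGO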
Streptococcus = assay: GAS UMAA2166 growth inhibition – luminescence, BacTiterGlo, counter-screen for streptokinase expression inhibitor project, dose response (AID 1915); type: functional, organism-based;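 further: potency for reduction of bacterial viability or growth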
[11] = molecular target: T2, Kappa-type opioid receptor; assay: kappa opioid receptor activation potency – imaging, image-based, SAR follow-up (AID 2359); type: functional
[12] = molecular target: T2, Kappa-type opioid receptor; assay: kappa opioid receptor blockers, image-based, SAR follow-up (AID 2348); type: functional
[13] = Trypanosoma cruzi growth suppression in host cells – NIH3T3 host cells, beta-gal luminescence, confirmation (AID 2044); type: functional, cell-based;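 further: intracellular parasites grown in NIH/3T3 mouse fibroblasts as host cells; luminescent beta-galactosidase reporter signal from transgenic T. cruzi replicating inside host cells; inhibitors lower the luminescence signal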
[14] = THP-1 cell cytotoxicity, dose response, cytotoxicity control for non-replicating M. tuberculosis project (AID 489025); type: functional
INS1 = assay: INS-1E survival protection against cytokine death – cell-based, luminescence, retest, dose response (AID 449756); type: functional; conditions: Rattus norvegicus;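 further: cell death triggered by IL-1 beta plus TNF-alpha plus IFN-gamma mixture; protective hits raise ATP signal compared with cytokine alone wells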
[15] = HepG2 cell cytotoxicity, dose response, cytotoxicity control for non-replicating M. tuberculosis project (AID 489018); type: functional; conditions: Mycobacterium tuberculosis
[16] = Luminescence Cell-Based Dose Response HTS to Identify Inhibitors of 5'UTR Stem-Loop Driven Prion Protein mRNA Translation in H4 Neuroglioblastoma Cells. [Related pubchem assays: 1827 (Project Summary), 1813 (Primary HTS)]; type: functional
[17] = molecular target: T6, Mannose-6-phosphate isomerase (Homo sapiens, UniProt P34949); assay: MPI inhibition at elevated mannose 6-phosphate – biochemical, fluorescence intensity, high mannose 6-phosphate, primary screen (AID 1220)
T6 sequence (P34949 whole entry): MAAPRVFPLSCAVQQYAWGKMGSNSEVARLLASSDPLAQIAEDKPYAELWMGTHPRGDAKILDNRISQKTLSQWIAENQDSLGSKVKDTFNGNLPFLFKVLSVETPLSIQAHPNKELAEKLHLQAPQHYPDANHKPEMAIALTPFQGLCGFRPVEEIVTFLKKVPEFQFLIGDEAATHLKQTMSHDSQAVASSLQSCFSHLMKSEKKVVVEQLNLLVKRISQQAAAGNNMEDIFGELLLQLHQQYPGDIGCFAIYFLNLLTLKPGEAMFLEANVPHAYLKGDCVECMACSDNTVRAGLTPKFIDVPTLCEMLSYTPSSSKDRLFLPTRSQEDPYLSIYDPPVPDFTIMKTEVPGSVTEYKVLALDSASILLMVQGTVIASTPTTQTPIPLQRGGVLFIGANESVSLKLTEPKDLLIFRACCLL

[18] = NIH3T3 cell viability loss – ATP luminescence, mouse fibroblasts, counter-screen, dose response (AID 2010); type: functional, cell-based;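 further: cells exposed to compound for about 90 hours before reading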
cells = type: functional
[19] = alpha-synuclein stem-loop luciferase translation blockers – H4 neuroglioma cells, luminescence, confirmation (AID 1988); type: functional, cell-based
[20] = Vero E6 cell cytotoxicity, dose response, cytotoxicity control for non-replicating M. tuberculosis project, secondary assay (AID 492998); type: functional, VeroE6; conditions: Vero C1008
Protein Wnt-3a = Protein Wnt-3a (Mus musculus, UniProt P27467); assay: antagonism of Wnt3a pathway luciferase reporter – Wnt-LIGHT cells, luminescence, selectivity assay for Gli-SUFU antagonist project, dose response (AID 651570); type: functional; conditions: read-out: IC50_Mean;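 further: Wnt-LIGHT reporter cells stimulated with conditioned medium from Wnt3a-producing cells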
[21] = molecular target: T6, Mannose-6-phosphate isomerase; assay: MPI enzyme activity inhibition – biochemical, fluorescence intensity, coupled assay, primary screen (AID 1209)
[22] = luciferase reporter signal suppression in cells – H4 neuroglioma cells, luminescence, dose response (AID 1990); type: functional, cell-based
[23] = molecular target: Lysine-specific demethylase 4C (Homo sapiens, UniProt Q9H3R0); assay: inhibition of JMJD2C H3K9me3 demethylation – biochemical, DELFIA europium, cherry-picked samples, dose response (AID 488835); type: functional
Hexokinase = Hexokinase (Trypanosoma brucei, UniProt Q38C41); assay: Confirmation assay for inhibitors of Trypanosoma brucei hexokinase 1-Analogue-first series. [Related pubchem assays (depositor defined):AID1430, AID1632, AID2516, AID2560, AID2579, AID2600, AID449725, AID492951]; type: functional
Sequence of Hexokinase (Q38C41 whole entry): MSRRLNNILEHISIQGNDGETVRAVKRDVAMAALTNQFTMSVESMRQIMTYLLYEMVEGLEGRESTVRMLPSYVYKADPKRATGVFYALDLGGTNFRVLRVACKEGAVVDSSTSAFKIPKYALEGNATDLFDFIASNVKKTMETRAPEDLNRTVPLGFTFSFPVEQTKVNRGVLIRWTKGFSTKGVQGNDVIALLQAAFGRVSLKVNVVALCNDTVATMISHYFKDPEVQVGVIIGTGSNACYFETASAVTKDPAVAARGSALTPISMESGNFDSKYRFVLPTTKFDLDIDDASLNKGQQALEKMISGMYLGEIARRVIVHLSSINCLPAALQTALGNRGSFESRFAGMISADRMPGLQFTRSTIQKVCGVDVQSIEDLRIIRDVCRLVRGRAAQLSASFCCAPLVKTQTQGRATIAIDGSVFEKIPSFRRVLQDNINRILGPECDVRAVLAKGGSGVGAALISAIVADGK

T2 sequence (P41145 whole entry): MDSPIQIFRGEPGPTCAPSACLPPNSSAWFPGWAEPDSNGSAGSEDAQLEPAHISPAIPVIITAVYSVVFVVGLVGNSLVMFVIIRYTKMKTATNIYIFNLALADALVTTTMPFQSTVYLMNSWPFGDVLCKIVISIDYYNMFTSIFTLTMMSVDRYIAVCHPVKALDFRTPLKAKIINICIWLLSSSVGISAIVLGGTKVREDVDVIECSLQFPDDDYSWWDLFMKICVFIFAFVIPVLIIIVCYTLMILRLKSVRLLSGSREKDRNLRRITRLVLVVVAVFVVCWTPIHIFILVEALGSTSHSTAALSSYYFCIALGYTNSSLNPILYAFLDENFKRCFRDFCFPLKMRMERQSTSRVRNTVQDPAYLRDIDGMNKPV
T1 sequence (P41143 whole entry): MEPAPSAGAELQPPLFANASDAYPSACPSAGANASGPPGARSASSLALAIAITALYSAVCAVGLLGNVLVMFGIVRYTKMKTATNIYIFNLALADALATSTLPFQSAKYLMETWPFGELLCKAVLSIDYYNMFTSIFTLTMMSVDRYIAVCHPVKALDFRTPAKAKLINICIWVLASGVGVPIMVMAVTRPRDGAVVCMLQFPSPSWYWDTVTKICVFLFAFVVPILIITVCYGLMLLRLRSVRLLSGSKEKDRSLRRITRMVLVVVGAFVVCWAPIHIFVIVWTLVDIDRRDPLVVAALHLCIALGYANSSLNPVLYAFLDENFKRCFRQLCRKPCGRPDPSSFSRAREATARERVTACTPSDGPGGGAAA
T5 sequence (P35372 whole entry): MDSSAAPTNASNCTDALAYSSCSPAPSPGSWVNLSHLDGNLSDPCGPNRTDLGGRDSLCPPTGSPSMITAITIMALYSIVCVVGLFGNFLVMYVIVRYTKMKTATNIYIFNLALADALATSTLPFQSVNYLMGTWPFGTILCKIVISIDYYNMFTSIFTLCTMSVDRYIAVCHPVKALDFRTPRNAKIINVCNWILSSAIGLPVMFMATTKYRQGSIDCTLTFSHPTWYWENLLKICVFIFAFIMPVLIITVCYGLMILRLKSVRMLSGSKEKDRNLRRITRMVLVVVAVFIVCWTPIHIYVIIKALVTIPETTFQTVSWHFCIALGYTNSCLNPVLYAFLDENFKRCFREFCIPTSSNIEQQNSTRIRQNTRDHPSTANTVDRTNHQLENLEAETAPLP
Sequence of Beta-galactosidase (Q8VNN2 whole entry): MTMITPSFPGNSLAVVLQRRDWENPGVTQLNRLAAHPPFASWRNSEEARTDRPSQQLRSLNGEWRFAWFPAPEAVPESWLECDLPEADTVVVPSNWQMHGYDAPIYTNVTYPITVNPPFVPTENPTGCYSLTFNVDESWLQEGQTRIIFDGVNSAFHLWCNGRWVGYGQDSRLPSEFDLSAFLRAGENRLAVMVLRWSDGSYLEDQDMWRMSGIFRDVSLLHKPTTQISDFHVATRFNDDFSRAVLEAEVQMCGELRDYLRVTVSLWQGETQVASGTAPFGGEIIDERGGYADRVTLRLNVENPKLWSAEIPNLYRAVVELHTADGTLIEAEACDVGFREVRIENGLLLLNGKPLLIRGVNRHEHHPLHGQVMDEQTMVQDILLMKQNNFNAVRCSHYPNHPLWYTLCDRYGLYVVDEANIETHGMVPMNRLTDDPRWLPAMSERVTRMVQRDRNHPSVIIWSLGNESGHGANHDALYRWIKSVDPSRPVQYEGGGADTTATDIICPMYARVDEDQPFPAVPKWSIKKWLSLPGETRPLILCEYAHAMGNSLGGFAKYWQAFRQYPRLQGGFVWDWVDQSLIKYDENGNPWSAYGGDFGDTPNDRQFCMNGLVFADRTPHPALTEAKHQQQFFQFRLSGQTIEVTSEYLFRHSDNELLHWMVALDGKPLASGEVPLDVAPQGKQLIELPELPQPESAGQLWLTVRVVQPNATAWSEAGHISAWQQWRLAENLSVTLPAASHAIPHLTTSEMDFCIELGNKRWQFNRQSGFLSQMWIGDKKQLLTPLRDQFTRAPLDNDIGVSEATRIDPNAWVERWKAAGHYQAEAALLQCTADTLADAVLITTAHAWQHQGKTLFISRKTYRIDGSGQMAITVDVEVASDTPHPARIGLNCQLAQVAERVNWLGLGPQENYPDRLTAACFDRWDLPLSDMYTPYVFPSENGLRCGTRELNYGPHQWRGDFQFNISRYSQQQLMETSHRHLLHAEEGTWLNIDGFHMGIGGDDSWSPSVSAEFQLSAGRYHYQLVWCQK
Sequence of Protein Wnt-3a (P27467 whole entry): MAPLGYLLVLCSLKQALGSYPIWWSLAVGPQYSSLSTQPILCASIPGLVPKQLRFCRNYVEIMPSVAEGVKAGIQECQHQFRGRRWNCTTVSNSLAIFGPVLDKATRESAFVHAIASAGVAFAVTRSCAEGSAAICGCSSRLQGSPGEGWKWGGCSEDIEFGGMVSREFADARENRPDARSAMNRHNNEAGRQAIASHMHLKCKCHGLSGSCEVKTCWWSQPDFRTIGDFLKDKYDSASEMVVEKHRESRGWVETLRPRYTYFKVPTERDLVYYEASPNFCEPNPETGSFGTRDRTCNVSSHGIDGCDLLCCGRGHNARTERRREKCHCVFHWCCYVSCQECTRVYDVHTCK
Sequence of Dual specificity protein phosphatase 3 (P51452 whole entry): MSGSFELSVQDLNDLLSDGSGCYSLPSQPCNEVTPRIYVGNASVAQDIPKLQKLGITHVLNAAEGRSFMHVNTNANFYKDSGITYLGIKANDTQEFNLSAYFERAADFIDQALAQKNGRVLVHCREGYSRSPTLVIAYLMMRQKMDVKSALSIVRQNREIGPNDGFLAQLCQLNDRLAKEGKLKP
Sequence of Lysine-specific demethylase 4C (Q9H3R0 whole entry): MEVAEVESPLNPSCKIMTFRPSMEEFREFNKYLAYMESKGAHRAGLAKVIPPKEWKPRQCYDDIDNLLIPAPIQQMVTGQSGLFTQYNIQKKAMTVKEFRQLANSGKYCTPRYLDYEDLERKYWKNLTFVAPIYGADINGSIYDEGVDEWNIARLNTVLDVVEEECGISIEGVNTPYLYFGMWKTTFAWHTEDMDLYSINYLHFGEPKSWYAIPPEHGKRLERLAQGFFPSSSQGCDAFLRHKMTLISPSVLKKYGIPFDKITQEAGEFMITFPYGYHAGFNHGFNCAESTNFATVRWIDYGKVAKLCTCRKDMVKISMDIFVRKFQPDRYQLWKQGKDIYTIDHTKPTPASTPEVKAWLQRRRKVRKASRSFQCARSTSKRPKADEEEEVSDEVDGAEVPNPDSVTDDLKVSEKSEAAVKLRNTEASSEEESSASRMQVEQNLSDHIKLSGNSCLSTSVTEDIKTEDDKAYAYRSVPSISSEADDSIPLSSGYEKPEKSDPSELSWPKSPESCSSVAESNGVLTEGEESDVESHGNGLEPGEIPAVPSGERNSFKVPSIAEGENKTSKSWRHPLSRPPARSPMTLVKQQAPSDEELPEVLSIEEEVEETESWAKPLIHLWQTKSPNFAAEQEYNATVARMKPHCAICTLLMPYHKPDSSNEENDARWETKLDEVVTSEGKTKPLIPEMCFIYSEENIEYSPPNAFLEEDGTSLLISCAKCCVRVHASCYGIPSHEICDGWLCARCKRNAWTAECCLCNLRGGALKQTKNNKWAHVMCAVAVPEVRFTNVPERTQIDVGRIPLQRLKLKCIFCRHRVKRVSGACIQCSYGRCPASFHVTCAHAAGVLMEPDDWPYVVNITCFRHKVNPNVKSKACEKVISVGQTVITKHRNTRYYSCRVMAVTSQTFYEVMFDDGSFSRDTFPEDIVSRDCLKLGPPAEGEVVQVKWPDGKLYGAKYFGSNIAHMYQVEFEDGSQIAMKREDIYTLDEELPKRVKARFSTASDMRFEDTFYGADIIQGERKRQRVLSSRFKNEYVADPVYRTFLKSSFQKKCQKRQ

With O=C(NC(NC(=S)Nc1c(Cl)cccc1Cl)C(Cl)(Cl)Cl)OCc1ccccc1 (stereo not given) the IC50 [1] was > 32 µM (inactive), the IC50 [2] was 1.15 µM (active) and the EC50 (Beta-galactosidase) was > 31.5 µM (inactive). For the same molecule, the IC50 [3] was 3.48 µM (active), the IC50 [4] was 63 µM (active) and the EC50 (Streptokinase A) was 3.01 µM (active). The EC50 [5] was > 32 µM (inactive), the IC50 [6] was 90 µM (active) and the EC50 (Mu-type opioid receptor [7]) was > 32 µM (inactive). For the same molecule, the IC50 [8] was 2.04 µM, the EC50 [9] was 1.65 µM (active) and the IC50 (Mu-type opioid receptor [10]) was 8.43 µM (active). The EC50 (Streptococcus) was 18 µM (active), the EC50 [11] was > 32 µM (inactive) and the IC50 [12] was 0.74 µM (active).

In the case of Cc1cc(N/N=C/c2ccc(O)cc2O)nc(-n2nc(C)cc2C)n1, the EC50 [13] is reported as 2.05 µM (active), the CC50 [14] is reported as 8.18 µM (active) and the AC50 (INS1) is reported as 0.3 µM (active). For the same molecule, the CC50 [15] was 11.4 µM (active), the EC50 [16] was 11.4 µM (active) and the IC50 [17] was > 50 µM (not active). The EC50 [18] was > 30 µM (not active), the IC50 (cells) was 0.18 µM (active) and the EC50 [19] was 11.2 µM (active). For the same molecule, the CC50 [20] was 3.72 µM (active), the IC50 (Protein Wnt-3a) was 41.3 µM (inactive) and the IC50 [21] was > 50 µM (not active). For the same molecule, the EC50 [22] was 10.9 µM (active) and the AC50 [23] was 2.7 µM (active).

For COc1ccc(C(=O)Nc2c(C(=O)O)ccc(Cl)c2Cl)cc1, the IC50 (Hexokinase) was > 25 µM (inactive).
